Assay results as given in patent US20240301435A1, “COMPOSITIONS AND METHODS FOR TRANSFORMATION OF MONOCOT SEED EXCISED EMBRYO EXPLANTS” (Monsanto Technology LLC, priority 2021, published 2024).
Several values for one entry are separate records, joined by “and”; a condition that tells them apart may be missing. Equal values may be shown once.

Assays:
Format in all cases: cell-based, corn (Zea mays)
corn explants = assay: Different cytokinins during bud induction on corn explant transformation (Table 30); settings: for # Normal Shoot / Total # Shoot: 5,000 explants
Method: An experiment was conducted to evaluate the effect of using different cytokinins during bud induction on corn explant transformation. Corn explants were surface sterilized, purified, rehydrated, inoculated with Agrobacterium, co-cultured, and subjected to the bud induction (without the second extended bud induction step) and regeneration steps as described in Example 1, unless otherwise noted. Glyphosate was used as the selection agent.
In this experiment, bud induction using four cytokinins, 6-Benzylaminopurine (BAP), Zeatin, thidiazuron (TDZ) and 6-(γ,γ-dimethylallylamino)purine (2iP), was evaluated.
The shoot frequency was calculated as the number of inoculated explants producing shoots divided by the total number of inoculated explants. The normal shoot frequency was calculated as the number of normal shoots divided by the total number of inoculated explants.

[1] = test system: corn seed excised explants; assay: 2,4-D in co-culture medium on corn explant transformation, 17 experiments (Table 32)
Method: Seventeen independent experiments were conducted to evaluate the effect of 2,4-D in the co-culture medium on corn explant transformation. Corn explants were surface sterilized, purified, rehydrated, inoculated with Agrobacterium, co-cultured, and subjected to bud induction, extended bud induction, and regeneration as described in Example 1, unless otherwise noted. Agrobacterium containing the same Ti plasmid as described in Example 9 was used for all experiments, except for experiments 13-17, in which two different bacterial origins of replication in the Ti-plasmid were evaluated in the presence or absence of 2,4-D in co-culture medium. In these cases, the Ti plasmids carried the same two expression cassettes flanked by T-DNA borders, one comprising the chloroplast-targeted CP4 EPSPS gene under the control of a constitutive promoter and the other comprising the uidA gene under the control of a similar constitutive promoter.
Table 32 provides a summary of results from treatments with and without 2,4-D in the co-culture medium from the 17 experiments. […] The increase in normal plant frequency ranged from 1.1 to 3.0-fold with an average increase of 1.8-fold.
(§1) The normal plant frequency was calculated as the number of normal plants divided by the total number of inoculated explants.

[2] = test system: corn seed excised explants; assay: 2,4-D in co-culture and co-culture duration 4 vs 5 days on corn explant transformation (Tables 34, 35); settings: for # Normal Plants / Normal Plant Frequency (%) / Shoot Frequency (%) / Total # Shoots: 2,4-D (5 mg/L) in co-culture +; for average normal plant frequency (%): 2,4-D present in co-culture (5 mg/L)
Method: In a separate experiment, co-culture durations of 4 days and 5 days were evaluated in combination with the presence or absence of 5 mg/L 2,4-D in the co-culture medium. Corn seed excised explants were surface sterilized, rehydrated and inoculated with an Agrobacterium suspension as described in the preceding experiment. The Agrobacterium contained a chloroplast-targeted CP4 EPSPS gene under the control of a constitutive promoter flanked by T-DNA borders on the Ti plasmid. The inoculated explants were transferred to co-culture plates with or without 5 mg/L 2,4-D and co-cultured for 4 or 5 days prior to bud induction, extended bud induction, and regeneration as described in the preceding experiment.
Furthermore, co-culture for 4 days produced a higher normal plant frequency compared to co-culture for 5 days.
The shoot frequency was calculated as the number of inoculated explants producing shoots divided by the total number of inoculated explants. The normal plant frequency was calculated as the number of normal plants divided by the total number of inoculated explants.
as §1

[3] = test system: corn seed excised explants; assay: Corn explant transformation: bud induction with different glyphosate concentrations, 28° C. vs 35° C. first week (Table 2)
Method: To evaluate the effect of elevated temperature during the initial bud induction step on transformation, two temperature treatments were evaluated using glyphosate for selection: 1) bud induction for two weeks at 28° C.; and 2) bud induction for one week at an elevated temperature of 35° C. followed by one week of bud induction at 28° C. The proceeding and subsequent steps for transformation of the corn explants in this experiment were generally performed as described in Example 1.
Following Agrobacterium inoculation and co-culture, corn explants were transferred to bud induction medium containing MS salts and B5 vitamins supplemented with 2 mg/L TDZ, 1 mg/L 2,4-D and different concentrations of glyphosate and cultured under the temperature conditions described above.
Total number shoots was calculated as the total number of shoots regenerated from inoculated explants, including both normal and chimeric shoots. The shoot frequency was calculated as the number of inoculated explants producing shoots divided by the total number of inoculated explants. […] The percentage normal shoots was calculated as the number of normal shoots divided by the total number of shoots. Normal shoot frequency was calculated as the number of normal shoots divided by the total number of inoculated explants.

[4] = cytokinin 2 mg/L in bud induction
[5] = glyphosate 12.5 μM, 1st week bud induction 28° C.
[6] = glyphosate 12.5 μM, 1st week bud induction 35° C.
[7] = glyphosate 25.0 μM, 1st week bud induction 28° C.
[8] = glyphosate 25.0 μM, 1st week bud induction 35° C.
[9] = glyphosate 37.5 μM, 1st week bud induction 28° C.
[10] = glyphosate 37.5 μM, 1st week bud induction 35° C.
[11] = glyphosate 50.0 μM, 1st week bud induction 28° C.
[12] = glyphosate 50.0 μM, 1st week bud induction 35° C.
[13] = cytokinin 10 mg/L in bud induction

O=C(Nc1ccccc1)Nc1cnns1 [TDZ, thidiazuron]
Normal Shoot Frequency (%) (corn explants; [4]): 1.70%
Shoot Frequency (%) (corn explants; [4]): 8.88%
# Normal Shoot (corn explants; [4]): 85
Total # Shoot (corn explants; [4]): 444

C/C(=C\CNc1ncnc2[nH]cnc12)CO [Zeatin]
Normal Shoot Frequency (%) (corn explants; [4]): 0.06%
Shoot Frequency (%) (corn explants; [4]): 0.20%
# Normal Shoot (corn explants; [4]): 3
Total # Shoot (corn explants; [4]): 10

O=C(O)COc1ccc(Cl)cc1Cl [2,4-D, 2,4-dichlorophenoxyacetic acid]
Normal Plant Frequency (%) With 2,4-D (5 mg/L) ([1]; 2,4-D 5 mg/L in co-culture medium, individual experiments 1-17, normal plants / inoculated explants): 1.10% and 1.24% and 1.48% and 0.20% and 0.60% and 2.40% and 1.70% (2×) and 4.20% and 1.50% and 0.40% (2×) and 0.70% and 0.80% and 1.40% and 1.00% and 1.56%
Normal Plant Frequency (%) With 2,4-D (5 mg/L), OVERALL ([1]; 2,4-D 5 mg/L in co-culture medium, overall of 17 experiments): 1.32%
average increase in normal plant frequency on removal of 2,4-D from the co-culture medium ([1]; 17 experiments): 1.8 fold
# Normal Plants ([2]; co-culture duration 4 days): 19 and 10
Normal Plant Frequency (%) ([2]; co-culture duration 4 days): 0.8% and 0.9%
Shoot Frequency (%) ([2]; co-culture duration 4 days): 1.5% and 1.1%
Total # Shoots ([2]; co-culture duration 4 days): 35 and 21
# Normal Plants ([2]; co-culture duration 5 days): 4
Normal Plant Frequency (%) ([2]; co-culture duration 5 days): 0.5%
Shoot Frequency (%) ([2]; co-culture duration 5 days): 1.1%
Total # Shoots ([2]; co-culture duration 5 days): 9
average normal plant frequency (%) ([2]; duration 4 days): 0.85%
average normal plant frequency (%) ([2]; duration 5 days): 0.5%
average normal plant frequency ([2]; 2,4-D present in co-culture medium (5 mg/L), 4 and 5 days): 0.73%

O=C(O)CNCP(=O)(O)O [Glyphosate, glyphosate]
Normal Shoot Frequency (%) [3, 5]: 0.36%
Normal Shoots (%) [3, 5]: 10.23%
Shoot Frequency (%) [3, 5]: 3.52%
Total # Normal Shoots [3, 5]: 9
Total # Shoots [3, 5]: 88
Normal Shoot Frequency (%) [3, 6]: 1.12%
Normal Shoots (%) [3, 6]: 14.43%
Shoot Frequency (%) [3, 6]: 7.76%
Total # Normal Shoots [3, 6]: 28
Total # Shoots [3, 6]: 194
Normal Shoot Frequency (%) [3, 7]: 0.28%
Normal Shoots (%) [3, 7]: 31.82%
Shoot Frequency (%) [3, 7]: 0.88%
Total # Normal Shoots [3, 7]: 7
Total # Shoots [3, 7]: 22
Normal Shoot Frequency (%) [3, 8]: 1.84%
Normal Shoots (%) [3, 8]: 20.91%
Shoot Frequency (%) [3, 8]: 8.8%
Total # Normal Shoots [3, 8]: 46
Total # Shoots [3, 8]: 220
Normal Shoot Frequency (%) [3, 9]: 0.2%
Normal Shoots (%) [3, 9]: 83.33%
Shoot Frequency (%) [3, 9]: 0.24%
Total # Normal Shoots [3, 9]: 5
Total # Shoots [3, 9]: 6
Normal Shoot Frequency (%) [3, 10]: 1.36%
Normal Shoots (%) [3, 10]: 22.82%
Shoot Frequency (%) [3, 10]: 5.96%
Total # Normal Shoots [3, 10]: 34
Total # Shoots [3, 10]: 149
Normal Shoot Frequency (%) [3, 11]: 0.16%
Normal Shoots (%) [3, 11]: 66.67%
Shoot Frequency (%) [3, 11]: 0.24%
Total # Normal Shoots [3, 11]: 4
Total # Shoots [3, 11]: 6
Normal Shoot Frequency (%) [3, 12]: 1.8%
Normal Shoots (%) [3, 12]: 32.61%
Shoot Frequency (%) [3, 12]: 5.52%
Total # Normal Shoots [3, 12]: 45
Total # Shoots [3, 12]: 138

CC(C)=CCNc1ncnc2nc[nH]c12 [2iP, 6-(γ,γ-dimethylallylamino)purine]
Normal Shoot Frequency (%) (corn explants; [13]): 0.06%
Shoot Frequency (%) (corn explants; [13]): 0.14%
# Normal Shoot (corn explants; [13]): 3
Total # Shoot (corn explants; [13]): 7

c1ccc(CNc2ncnc3nc[nH]c23)cc1 [BAP, 6-Benzylaminopurine]
Normal Shoot Frequency (%) (corn explants; [13]): 1.56%
Shoot Frequency (%) (corn explants; [13]): 5.80%
# Normal Shoot (corn explants; [13]): 78
Total # Shoot (corn explants; [13]): 290
bud induction (corn explants; other studies, 1-8 mg/L BAP): bud induction was also observed
